Reference: PMC6934184, “Selective DNA-PKcs inhibition extends the therapeutic index of localized radiotherapy and chemotherapy” (The Journal of Clinical Investigation, 2019)

Molecular target: T1, MAPKAPK2 (Homo sapiens, UniProt P49137)
T1 construct: purchased Thermo Fisher Scientific (Life Technologies) SelectScreen
Experiment: SelectScreen Z'LYTE
Assay type: biochemical
Method in brief: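 NU5455 was profiled across the SelectScreen Broad panel of kinase activity and binding assays. Z'LYTE reactions such as CSF1R ran at apparent Km ATP, while the Adapta CAMK1 assay used ATP listed as 10. Values are given as percent.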

T1 sequence (P49137 whole entry): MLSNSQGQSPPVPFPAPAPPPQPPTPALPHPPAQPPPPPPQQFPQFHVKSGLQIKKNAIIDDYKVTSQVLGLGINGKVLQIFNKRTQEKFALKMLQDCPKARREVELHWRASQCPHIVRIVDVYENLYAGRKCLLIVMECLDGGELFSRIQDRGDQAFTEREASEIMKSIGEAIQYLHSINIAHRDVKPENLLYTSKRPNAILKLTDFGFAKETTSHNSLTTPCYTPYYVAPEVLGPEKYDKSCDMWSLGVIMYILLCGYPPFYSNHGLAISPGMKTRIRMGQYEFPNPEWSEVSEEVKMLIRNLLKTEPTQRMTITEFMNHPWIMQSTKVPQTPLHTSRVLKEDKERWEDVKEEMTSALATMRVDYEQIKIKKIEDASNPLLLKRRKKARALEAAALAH

CN(C(=O)CN1CCOCC1)c1ccc2sc3c(-c4cccc5c(=O)cc(N6CC7CCC(C6)O7)oc45)cccc3c2c1 [NU5455]
inhibition at 1 µM: -3.1%
